#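 1) Cells in 96-well plates. 2) Compound, 48 h, 5 concentrations. 3) Linear interpolation between surrounding doses. 4) Unreached endpoint = highest concentration. Abbreviation: GI50, concentration required for 50% inhibition of growth. TGI marks complete inhibition of growth.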
# Key:
# Test in all cases: NCI-60 cell line screen, 48 h
# EKVX NSCLC = system: EKVX NSCLC
# LOX IMVI melanoma = system: LOX IMVI melanoma
# NCI-H226 lung = system: NCI-H226 lung
# OVCAR-5 ovarian = system: OVCAR-5 ovarian
# SK-MEL-28 melanoma = system: SK-MEL-28 melanoma
# SK-MEL-5 melanoma = system: SK-MEL-5 melanoma
# TK-10 renal = system: TK-10 renal
# SW-620 colon = system: SW-620 colon
# HS 578T breast = system: HS 578T breast
# NCI/ADR-RES ovarian = system: NCI/ADR-RES ovarian
Structure (SMILES),TGI (EKVX NSCLC) [µM],TGI (LOX IMVI melanoma) [µM],TGI (NCI-H226 lung) [µM],TGI (OVCAR-5 ovarian) [µM],TGI (SK-MEL-28 melanoma) [µM],TGI (SK-MEL-5 melanoma) [µM],TGI (TK-10 renal) [µM],GI50 (EKVX NSCLC) [µM],GI50 (LOX IMVI melanoma) [µM],GI50 (NCI-H226 lung) [µM],GI50 (OVCAR-5 ovarian) [µM],GI50 (SK-MEL-28 melanoma) [µM],GI50 (SK-MEL-5 melanoma) [µM],GI50 (SW-620 colon) [µM],TGI (SW-620 colon) [µM],GI50 (TK-10 renal) [µM],GI50 (HS 578T breast) [µM],TGI (HS 578T breast) [µM],GI50 (NCI/ADR-RES ovarian) [µM],TGI (NCI/ADR-RES ovarian) [µM]
COc1ccccc1NC(=O)C1=C(C)NC(C)=C(C(=O)Nc2ccccc2OC)C1c1ccccc1[N+](=O)[O-],> 100,33.2,35.2,85.4,33.9,74.3,59.2,–,–,–,–,–,–,–,–,–,–,–,–,–
NC1NC=NC2C1N=CN2C1OC(CO)C2[O][Sn][O]C21 (configuration not stated),> 100,> 100,> 100,> 100,> 100,> 100,> 100,> 100,> 100,> 100,> 100,> 100,> 100,> 100,> 100,> 100,–,–,–,–
COc1cc(/C=C/C(=O)c2cccc(-n3cc(-c4cc(OC)c(OC)c(OC)c4)[nH]c3=O)c2)cc(OC)c1OC,> 100,3.48,80.3,13.4,3.39,9.57,6.68,9.48,1.23,14.4,4.38,1.61,2.76,–,–,3,> 100,> 100,–,–
Nc1nncc2c1c(Br)cn2C1OC(CO)C(O)C1O (configuration not stated),> 100,> 100,> 100,> 100,> 100,> 100,> 100,–,–,–,–,–,–,–,> 100,–,–,–,–,–
CSC1=NC(=Nc2c(C)cccc2C)C2(CCC(C(C)(C)C)CC2)N1c1ccc(Cl)cc1 (configuration not stated),–,> 100,> 100,> 100,> 100,> 100,> 100,–,6.66,8.93,> 100,99.6,9.32,27,> 100,39.8,95.8,> 100,77.7,> 100
CC(C)(CN1C(=O)C(Cl)=C(Cl)C1=O)CN1C(=O)C(Cl)=C(Cl)C1=O,51.5,33.5,53.4,42.7,20,51.6,22.2,–,–,–,–,–,–,–,15.3,–,–,–,–,–
O=C(c1ccc(O)cc1O)C1C(c2ccc(O)cc2)OC(c2ccc(O)cc2)C1C(=O)c1ccc(O)cc1O (configuration not stated),60,44.2,40.4,29.7,36,29.6,49.8,–,–,–,–,–,–,–,> 100,–,–,–,–,–
Cn1c(CBr)nc2c1C(=O)c1nc(CBr)[nH]c(=O)c1C2=O,> 100,> 100,–,–,> 100,> 100,> 100,–,–,–,–,–,–,–,> 100,–,–,–,–,–
COC1C2C[C@@H](O)CCC2C(C(=O)OCCl)C[C@H]1O (some centres not stated),–,–,> 100,–,> 100,> 100,> 100,–,–,–,–,–,–,–,> 100,–,–,–,–,–
Cc1ccc(NC(=O)CCCC(=O)CC(=O)c2ccc(Br)cc2)cc1,> 100,> 100,> 100,> 100,> 100,> 100,> 100,–,–,–,–,–,–,–,> 100,–,–,–,–,–
Cc1nc(N)nc(N)c1CCCCc1ccc(N)cc1,27.3,14.8,56.1,23,23.5,16.5,28.8,–,–,–,–,–,–,–,19.8,–,–,–,–,–
NC(=O)c1ccc2c(c1)-c1nc-2nc2[n-]c(nc3nc(nc4[n-]c(n1)c1ccc(C(N)=O)cc41)-c1ccc(C(N)=O)cc1-3)c1ccc(C(N)=O)cc21.[Co+2],> 50,> 50,> 50,> 50,> 50,> 50,> 50,> 50,16.1,> 50,> 50,> 50,> 50,26.9,> 50,> 50,–,–,–,–
Cc1ccc(NC(=O)CCc2nc(=S)[nH][nH]2)cc1,> 100,–,> 100,> 100,> 100,> 100,> 100,–,–,–,–,–,–,–,> 100,–,–,–,–,–
COc1cccc(/C=C/C(=O)c2ccc3cc(OC)ccc3c2)c1,40.8,14.5,–,25.5,48.1,18.2,46.4,13,2.92,–,11.1,12.6,9.21,7.03,20.5,15.6,14.3,48.3,–,–
CC(C)N(C(=O)C12C3C4C1C1C2C3C41C#N)C(C)C (configuration not stated),> 100,> 67.2,> 100,> 100,> 100,> 100,> 100,–,–,–,–,–,–,–,> 100,–,–,–,–,–
COc1cc[c]([Sn]([c]2ccc(OC)cc2)([c]2ccc(OC)cc2)[c]2ccc(OC)cc2)cc1,> 100,29.4,–,> 100,–,28.5,51.1,35,13.6,–,33.3,–,12.7,18.9,55.9,17.9,–,–,–,–
C[C@@]1([C@H](OC(=O)c2ccccc2)C(N)=O)CO1,62.4,24.5,–,85.9,53.2,31.3,73.7,24.2,4.21,–,34.1,20.6,15.1,22.6,95.2,19.8,34.4,92.7,16.4,44.3
CN=c1ss/c(=N\C(=S)N(C)C)n1C,> 100,–,> 100,> 100,> 100,> 100,> 100,–,–,–,–,–,–,–,> 100,–,–,–,–,–
CCCNC(=O)Nc1c([N+](=O)[O-])cc(C(F)(F)F)cc1[N+](=O)[O-],> 100,> 100,> 100,> 100,> 100,> 100,> 100,–,–,–,–,–,–,–,> 100,–,–,–,–,–
Nc1nnc2c(-c3ccccc3)[nH]nc2n1,> 100,> 100,> 100,> 100,> 100,–,> 100,–,–,–,–,–,–,–,> 100,–,–,–,–,–

# Source: PubChem BioAssay (NCI)
